From the CheMixHub drug solubility set

Experiment: xn = mol fraction of the nth substance listed, in the solute-free solvent

O=C(O)CC(O)C(=O)O (stereo unspecified) + CC#N + CCCCOC(C)=O
solubility (g/100 g solution)
Details	278.15 K	283.15 K	288.15 K	293.15 K	298.15 K	303.15 K	308.15 K	313.15 K	318.15 K	323.15 K
x2 = 0.4143	1.23	1.39	1.63	1.79	2.06	2.36	2.73	3.15	3.71	4.37
x2 = 0.5481	1.54	1.77	2.1	2.45	2.86	3.39	3.96	4.62	5.41	6.44
x2 = 0.6535	2.05	2.38	2.8	3.32	3.93	4.61	5.48	6.51	7.78	9.24
x2 = 0.7389	2.71	3.15	3.56	4.05	4.88	5.66	6.77	7.85	9.29	11.2
x2 = 0.8093	3.25	3.73	4.29	4.93	5.81	6.58	7.95	9.34	10.9	13.2
x2 = 0.8685	3.84	4.31	4.89	5.73	6.8	8.05	9.49	11.3	13.5	15.8
x2 = 0.9188	4.19	4.92	5.74	6.72	8.05	9.62	11.4	13.7	16.4	19.4

Cc1c(Br)cccc1C(=O)O + C1CCOC1 + CCOC(C)=O
solubility (g/100 g solution)
Details	x2 = 0.161	x2 = 0.318	x2 = 0.471	x2 = 0.62	x2 = 0.765	x2 = 0.907
278.15 K	11.6	16.7	21.6	26.2	30	35
283.15 K	12.9	18.1	23.4	28.1	32	37.2
288.15 K	14.2	19.7	24.9	29.9	33.8	39.1
293.15 K	15.4	21.3	26.6	31.7	35.6	41.2
298.15 K	16.9	22.7	28.2	33.4	37.3	43
303.15 K	18.3	24.4	30	35.3	39	44.9
308.15 K	19.8	26	31.6	36.9	40.6	46.5
313.15 K	21.6	27.6	33.3	38.6	42.1	48.1
318.15 K	23.4	29.4	35.1	40.2	43.6	49.6
323.15 K	25.3	31.3	36.7	41.8	44.9	51.1
328.15 K	27.6	33.3	38.5	43.6	46.2	52.5

CCC(C)n1ncn(-c2ccc(N3CCN(c4ccc(OCC5COC(Cn6cncn6)(c6ccc(Cl)cc6Cl)O5)cc4)CC3)cc2)c1=O (stereo unspecified) + ClC(Cl)Cl + CCCO
solubility (g/100 g solution)
Details	x2 = 0.05356	x2 = 0.113	x2 = 0.1792	x2 = 0.2535	x2 = 0.3375	x2 = 0.4331	x2 = 0.5431	x2 = 0.6708	x2 = 0.8209
288.15 K	0.0558	0.128	0.28	0.831	3.16	6.95	12.2	17.6	24.2
293.15 K	0.0691	0.153	0.347	1.04	3.51	7.71	13.2	18.8	25.1
298.15 K	0.0837	0.183	0.426	1.28	3.9	8.57	14.2	19.9	26.1
303.15 K	0.102	0.216	0.523	1.57	4.29	9.48	15.3	21.1	26.9
308.15 K	0.122	0.255	0.63	1.89	4.73	10.4	16.3	22.3	27.8
